Measured values reported in ChEMBL document CHEMBL2407087, “Casuarinines A-J, lycodine-type alkaloids from Lycopodiastrum casuarinoides” (J Nat Prod, 2013).
Active and inactive are the calls of the source. The calls are words filed in the database; no cut-off is given here.

How the values were obtained:
[1] = Neuroprotective activity in human SH-SY5Y cells assessed as protection against H2O2-induced reduction of cell viability at 100 uM treated 2 hrs before H2O2 addition measured after 24 hrs by MTT assay relative to H2O2 treated control; type: functional, cell-based
[2] = Neuroprotective activity in human SH-SY5Y cells assessed as protection against H2O2-induced reduction of cell viability at 100 uM treated 2 hrs before H2O2 addition measured after 24 hrs by MTT assay relative to control; type: functional, cell-based
[3] = target: T1, Acetylcholinesterase (Rattus norvegicus) (UniProt P37136); experiment: Mixed-type competitive inhibition of rat cortical AChE by Lineweaver-Burke plot analysis
T1 sequence (whole entry): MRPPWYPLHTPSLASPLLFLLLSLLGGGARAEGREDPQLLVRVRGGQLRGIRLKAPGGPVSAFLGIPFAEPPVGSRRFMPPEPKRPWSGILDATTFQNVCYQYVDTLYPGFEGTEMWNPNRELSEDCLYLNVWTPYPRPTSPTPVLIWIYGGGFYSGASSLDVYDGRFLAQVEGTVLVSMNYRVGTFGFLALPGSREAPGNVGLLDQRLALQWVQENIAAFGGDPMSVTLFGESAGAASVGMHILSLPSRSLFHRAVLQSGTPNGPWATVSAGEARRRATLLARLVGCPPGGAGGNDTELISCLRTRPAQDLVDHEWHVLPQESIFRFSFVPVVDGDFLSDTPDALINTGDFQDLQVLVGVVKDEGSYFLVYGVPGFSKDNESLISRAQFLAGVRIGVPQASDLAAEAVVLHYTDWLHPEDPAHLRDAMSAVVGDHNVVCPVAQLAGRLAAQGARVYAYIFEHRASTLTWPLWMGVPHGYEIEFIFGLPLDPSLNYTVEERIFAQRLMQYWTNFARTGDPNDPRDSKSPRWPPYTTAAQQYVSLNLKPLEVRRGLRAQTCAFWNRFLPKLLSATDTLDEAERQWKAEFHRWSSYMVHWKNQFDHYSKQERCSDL

[4] = target: T1, Acetylcholinesterase (Rattus norvegicus); experiment: Reversible inhibition of rat cortical AChE up to 8 mins
[5] = Neuroprotective activity in human SH-SY5Y cells assessed as protection against H2O2-induced reduction of cell viability at 10 uM treated 2 hrs before H2O2 addition measured after 24 hrs by MTT assay relative to H2O2 treated control; type: functional, cell-based
[6] = Neuroprotective activity in human SH-SY5Y cells assessed as protection against H2O2-induced reduction of cell viability at 10 uM treated 2 hrs before H2O2 addition measured after 24 hrs by MTT assay relative to control; type: functional, cell-based
[7] = Neuroprotective activity in human SH-SY5Y cells assessed as protection against H2O2-induced reduction of cell viability at 1 uM treated 2 hrs before H2O2 addition measured after 24 hrs by MTT assay relative to control; type: functional, cell-based
[8] = target: T2, Acetylcholinesterase (Mus musculus, UniProt P21836); experiment: Inhibition of mouse skeletal AChE
T2 sequence (P21836 whole entry): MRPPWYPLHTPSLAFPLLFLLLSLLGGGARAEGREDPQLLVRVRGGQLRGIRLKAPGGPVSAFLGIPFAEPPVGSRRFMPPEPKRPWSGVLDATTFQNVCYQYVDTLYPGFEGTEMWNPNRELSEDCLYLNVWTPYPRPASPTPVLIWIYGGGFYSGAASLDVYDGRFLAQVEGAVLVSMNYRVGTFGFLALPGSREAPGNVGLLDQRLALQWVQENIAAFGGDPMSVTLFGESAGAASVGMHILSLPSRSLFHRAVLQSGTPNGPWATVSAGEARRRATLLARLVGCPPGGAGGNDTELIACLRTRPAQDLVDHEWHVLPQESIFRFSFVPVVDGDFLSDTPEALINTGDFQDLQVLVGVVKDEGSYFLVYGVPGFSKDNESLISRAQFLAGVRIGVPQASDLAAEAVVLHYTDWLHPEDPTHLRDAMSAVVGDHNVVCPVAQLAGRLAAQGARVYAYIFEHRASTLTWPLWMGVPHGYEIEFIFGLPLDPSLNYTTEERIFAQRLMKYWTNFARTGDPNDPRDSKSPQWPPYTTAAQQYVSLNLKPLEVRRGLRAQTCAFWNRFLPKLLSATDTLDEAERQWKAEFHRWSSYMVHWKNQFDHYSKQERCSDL

[9] = target: Acetylcholinesterase (Homo sapiens, UniProt P22303); experiment: Inhibition of AChE (unknown origin) using acetylthiocholine iodide as substrate after 8 mins by Ellman's spectrophotometric method
Chain of Acetylcholinesterase (Homo sapiens, UniProt P22303) (P22303 whole entry): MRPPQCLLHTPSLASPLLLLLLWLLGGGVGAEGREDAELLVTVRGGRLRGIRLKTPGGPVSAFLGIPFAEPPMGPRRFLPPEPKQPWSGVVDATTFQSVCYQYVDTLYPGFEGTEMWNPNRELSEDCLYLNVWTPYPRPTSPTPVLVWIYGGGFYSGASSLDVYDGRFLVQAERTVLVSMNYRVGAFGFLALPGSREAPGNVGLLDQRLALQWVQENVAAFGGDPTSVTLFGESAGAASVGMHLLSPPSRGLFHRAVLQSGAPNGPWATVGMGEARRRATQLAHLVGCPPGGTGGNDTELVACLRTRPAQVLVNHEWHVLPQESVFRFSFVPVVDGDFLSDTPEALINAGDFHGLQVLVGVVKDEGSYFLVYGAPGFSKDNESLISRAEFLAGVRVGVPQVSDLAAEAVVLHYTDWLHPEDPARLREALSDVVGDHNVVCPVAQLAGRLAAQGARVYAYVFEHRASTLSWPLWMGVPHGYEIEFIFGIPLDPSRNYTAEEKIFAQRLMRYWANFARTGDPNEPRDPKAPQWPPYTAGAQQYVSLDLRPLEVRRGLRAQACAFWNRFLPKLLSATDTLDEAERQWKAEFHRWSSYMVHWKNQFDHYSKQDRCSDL

Row | SMILES | inhibition [3] | inhibition [4] | IC50 [9] | also measured
1 | CC(=O)N[C@@H](CS)C(=O)O |  |  |  | Activity [1]: 12.3%; Activity [2]: 55.8%
2 | C=C[C@@H]1[C@H]2C=C(C)C[C@]1(N)c1ccc(=O)[nH]c1C2 | Active | Active |  | 
3 | C=C[C@@H]1[C@@H]2Cc3[nH]c(=O)ccc3[C@@]1(N)C[C@H](C)C2 |  |  |  | Activity [5]: 12%; Activity [6]: 55.5%; Activity [7]: 49.1%
4 | C=C[C@@H]1[C@H]2C=C(C)C[C@]1(NC)c1ccc(=O)[nH]c1C2 | Active | Active | 15 µM | IC50 [8]: 2 µM
5 | CC1=C[C@H]2Cc3[nH]c(=O)ccc3[C@@]3(C1)[C@@H]2[C@H](Cl)CCN3C | Active | Active | 20.9 µM | 
6 | CC1=C[C@H]2Cc3[nH]c(=O)ccc3[C@@]3(C1)[C@@H]2[C@H](C)CN3C |  | Active | 12.1 µM | 
